Source: US20090217402A1, “METHODS AND COMPOSITIONS FOR MODULATING THE ACTIVITY OF PEPTIDASES IN MACROPHAGE AND MACROPHAGE-LIKE CELLS” (Emory University, priority 2005, published 2009)
Entries after “also recorded” stand apart in the source; their conditions may differ.

Test system: B16-F10 melanoma cells
Experiment: B16-F10 melanoma tumor growth in wild type and ACE 10/10 mice with co-administered drug
Assay type: in vivo, mouse
Conditions: intradermal B16-F10 melanoma
Experimental: Quantitation of B16-F10 tumor growth in wild type and ACE 10/10 mice was also conducted between groups in which the ACE inhibitor captopril was also administered. […] This experiment establishes that it is the presence of ACE in the ACE 10/10 mice that is important in the observed effects on tumor growth compared to wild-type mice.
B16-F10 tumor protocol. B16-F10 melanoma cell line was obtained from ATCC (American Type Culture Collection, Manassas, Va., USA). Cells were cultured in DMEM supplemented with 4 mM L-glutamine, 4.5 g/l glucose, 10% FBS, and antibiotics under humidified air with 5% CO2 at 37° C. […] The supernatant was removed, cell pellets were resuspended in PBS, and the cell number was counted.
Mice aged 8 to 12 weeks received exponentially growing cells (1×10^6) interdermally into the dorsal skin using a disposable 27-gauge needle under anesthesia (28 mg/kg avertin, intraperitoneally). Measurements of tumor size (longest and shortest diameters) were done using calipers at the 11th and 14th day, and body weight was measured at the day of inoculation (Day 0) and at harvesting (the 14th day), respectively. Tumor volume was calculated by the formula for a prolate spheroid according to the equation (L [longest diameter] H S2 [shortest diameter] H 0.52)=tumor volume.

SMILES	B16-F10 tumor growth (resistance of ACE 10/10 mice to melanoma)
C[C@H](CS)C(=O)N1CCC[C@H]1C(=O)O [captopril]	comparable to wild-type mice in terms of susceptibility to tumor growth
CCCCc1nc(Cl)c(CO)n1Cc1ccc(-c2ccccc2-c2nn[nH]n2)cc1 [losartan]	does not inhibit the ability of the ACE 10/10 mice to resist melanoma; also recorded: did not inhibit the ability of the ACE 10/10 mice to resist melanoma growth
